According to US20240124422A1, “MUTANT PI3K-ALPHA INHIBITORS AND THEIR USE AS PHARMACEUTICALS” (Prelude Therapeutics Incorporated, priority 2022, published 2024):
Where two headings read alike, the source gives them in different places.

Experiments:
[1] = tested on: phosphorylation of AKT on Ser473 as a readout of the PI3K pathway in T-47D (heterozygous PIK3CA H1047R) cells; assay: PI3K pathway activation assay, pAKT Ser473 HTRF, T-47D cells; type: cell-based; conditions: two hours of treatment
Summary of the method: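 pAKT Ser473 measured by HTRF in SKBR3 (PIK3CA WT) and T-47D (PIK3CA H1047R) cells, 4,000/well. Signal normalised to background and DMSO controls as percent inhibition.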

[2] = tested on: phosphorylation of AKT on Ser473 as a readout of the PI3K pathway in SKBR3 (PIK3CA WT) cells; assay: PI3K pathway activation assay, pAKT Ser473 HTRF, SKBR3 cells; type: cell-based; conditions: two hours of treatment
Procedure: The inhibitory activity of compounds was evaluated by measuring phosphorylation of AKT on Ser473 as a readout of the PI3K pathway using HTRF (CisBio catalog number: 64AKSPE). These studies were conducted in the T-47D (heterozygous PIK3CA H1047R) and SKBR3 (PIK3CA WT) cell lines. Cells were maintained in a 37° C. incubator at 5% CO2 in the following media: T-47D: RPMI 1640, ATCC© Modification (Gibco, A10491-01) supplemented with 10% v/v FBS (Gibco, 26140-079), 1% penicillin streptomycin (Gibco, 15140-122), and 7.4 ug/mL insulin (MilliporeSigma, I9278); SKBR3: McCoy's 5a (Modified) Medium (Gibco, 16600-082) supplemented with 10% v/v FBS (Gibco, 26140-079). Cells were seeded in 384-well plates at a density of 4,000 cells/well. Compounds dissolved in DMSO were added using a digital dispense (D300E, Tecan) 10-point serial dilution. After two hours of treatment, cells were lysed for thirty minutes and then incubated with detection reagents per HTRF kit material and manufacturer's instructions. Fluorescence signal was measured with a multimode plate reader (Envision 2105, Perkin Elmer). Fluorescent signal was normalized to background and DMSO controls to obtain percent inhibition/activity for each compound.

Row | Compound | IC50 ([1]; Homo sapiens, T47D, 2 h) | IC50 ([2]; Homo sapiens, SK-BR-3, 2 h) | IC50 ([1]; read-out: T47D pAKT IC50) | IC50 [2]
1 | COc1nc2c(C(C)Nc3ccccc3C(=O)O)cc(C)cc2c(=O)n1C (stereo not drawn) [Example 41, 2-[1-(2-methoxy-3,6-dimethyl-4-oxoquinazolin-8-yl)ethylamino]benzoic acid] | 0.5 to 10 µM | > 10 µM | – | –
2 | CSc1nc2c(C(C)Nc3ccccc3C(=O)O)cc(C)cc2c(=O)n1C (stereo not drawn) [Example 43, 2-[1-(3,6-dimethyl-2-methylsulfanyl-4-oxoquinazolin-8-yl)ethylamino]benzoic acid] | 0.5 to 10 µM | > 10 µM | – | –
3 | Cc1cc(C(C)Nc2ccccc2C(=O)O)c2nc(N3Cc4ccccc4C3)n(C)c(=O)c2c1 (stereo not drawn) [Example 1, 2-((1-(2-(isoindolin-2-yl)-3,6-dimethyl-4-oxo-3,4-dihydroquinazolin-8-yl)ethyl)amino)benzoic acid] | < 0.5 µM | > 10 µM | – | –
4 | CC(Nc1ccccc1C(=O)O)c1cc(Br)cc2c(=O)n(C)c(N3Cc4ccccc4C3)nc12 (stereo not drawn) [Example 70, 2-((1-(6-Bromo-2-(isoindolin-2-yl)-3-methyl-4-oxo-3,4-dihydroquinazolin-8-yl)ethyl)amino)benzoic acid] | < 0.5 µM | > 10 µM | – | –
5 | Cc1cc(C(C)Nc2ccccc2C(=O)O)c2nc(N3CC4CCC3C4)n(C)c(=O)c2c1 (single isomer, unassigned) [Example 99, 2-((1-(2-(2-Azabicyclo[2.2.1]heptan-2-yl)-3,6-dimethyl-4-oxo-3,4-dihydro-quinazolin-8-yl)ethyl)amino)benzoic acid] | < 0.5 µM | > 10 µM | – | –
6 | Cc1cc(C(C)Nc2ccccc2C(=O)NO)c2nc(N3Cc4ccccc4C3)n(C)c(=O)c2c1 (stereo not drawn) [Example 10, N-Hydroxy-2-((1-(2-(isoindolin-2-yl)-3,6-dimethyl-4-oxo-3,4-dihydroquinazolin-8-yl)ethyl)amino)benzamide] | 0.5 to 10 µM | > 10 µM | – | –
7 | Cc1ccc(C(=O)O)c(NC(C)c2cc(C)cc3c(=O)n(C)c(N4Cc5ccccc5C4)nc23)c1 (stereo not drawn) [Example 69, 2-((1-(2-(Isoindolin-2-yl)-3,6-dimethyl-4-oxo-3,4-dihydroquinazolin-8-yl)ethyl)amino)-4-methylbenzoic] | 0.5 to 10 µM | > 10 µM | – | –
8 | Cc1cc(C(C)Nc2cccnc2C(=O)O)c2nc(N3Cc4ccccc4C3)n(C)c(=O)c2c1 (stereo not drawn) [Example 28, 3-((1-(2-(isoindolin-2-yl)-3,6-dimethyl-4-oxo-3,4-dihydroquinazolin-8-yl)ethyl)amino)picolinic acid] | 0.5 to 10 µM | > 10 µM | – | –
9 | Cc1cc(C(C)Nc2ccccc2C(=O)O)c2nc(N3Cc4ccccc4C3)n([C@H]3C[C@H](O)C3)c(=O)c2c1 (stereo partly drawn) [Example 48, 2-((1-(3-((1r,3r)-3-Hydroxycyclobutyl)-2-(isoindolin-2-yl)-6-methyl-4-oxo-3,4-dihydroquinazolin-8-yl)ethyl)amino)benzoic acid] | < 0.5 µM | > 10 µM | – | –
10 | COc1ccc(NC(C)c2cc(C)cc3c(=O)n(C)c(N4CC5CC5C4)nc23)c(C(=O)O)n1 (stereo not drawn) [Example 119, 3-[1-[2-(3-Azabicyclo[3.1.0]hexan-3-yl)-3,6-dimethyl-4-oxoquinazolin-8-yl]ethylamino]-6-methoxypyridine-2-carboxylic acid] | 0.5 to 10 µM | > 10 µM | – | –
11 | Cc1cc(C(C)Nc2ccccc2C(=O)O)c2nc(N(C)C)n(C)c(=O)c2c1 (stereo not drawn) [Example 54, 2-[1-[2-(dimethylamino)-3,6-dimethyl-4-oxoquinazolin-8-yl]ethylamino]benzoic acid] | 0.5 to 10 µM | > 10 µM | – | –
12 | Cc1cc(C(C)Nc2ccc(F)c(O)c2F)c2nc(N3Cc4ccccc4C3)n(C)c(=O)c2c1 (stereo not drawn) [Example 11, 8-(1-((2,4-difluoro-3-hydroxyphenyl)amino)ethyl)-2-(isoindolin-2-yl)-3,6-dimethylquinazolin-4(3H)-one] | 0.5 to 10 µM | > 10 µM | – | –
13 | Cc1cc(C(C)Nc2ccccc2C(=O)O)c2nc(N3CC4CC4C3)n(C)c(=O)c2c1 (single isomer, unassigned) [Example 24, 2-((1-(2-(3-azabicyclo[3.1.0]hexan-3-yl)-3,6-dimethyl-4-oxo-3,4-dihydro-quinazolin-8-yl)ethyl)amino)benzoic acid] | < 0.5 µM | > 10 µM | – | –
14 | Cc1cc(C(C)Nc2ccccc2S(N)(=O)=O)c2nc(N3Cc4ccccc4C3)n(C)c(=O)c2c1 (stereo not drawn) [Example 6, 2-((1-(2-(isoindolin-2-yl)-3,6-dimethyl-4-oxo-3,4-dihydroquinazolin-8-yl)ethyl)amino)benzenesulfonamide] | < 0.5 µM | > 10 µM | – | –
15 | Cc1cc(C(C)Nc2ccccc2C(=O)O)c2nc(N3Cc4ccccc4C3)[nH]c(=O)c2c1 (stereo not drawn) [Example 22, 2-((1-(2-(isoindolin-2-yl)-6-methyl-4-oxo-3,4-dihydroquinazolin-8-yl)ethyl)amino)benzoic acid] | < 0.5 µM | > 10 µM | – | –
16 | Cc1cc(C(C)Nc2ccc(C)nc2C(=O)O)c2nc(N3CC4CC4C3)n(C)c(=O)c2c1 (stereo not drawn) [Example 120, 3-[1-[2-(3-Azabicyclo[3.1.0]hexan-3-yl)-3,6-dimethyl-4-oxoquinazolin-8-yl]ethylamino]-6-methylpyridine-2-carboxylic acid] | 0.5 to 10 µM | > 10 µM | – | –
17 | Cc1cc(C(C)Nc2ccccc2C(=O)O)c2nc(N3Cc4ccc(F)cc4C3)n(C)c(=O)c2c1 (stereo not drawn) [Example 2, 2-((1-(2-(5-fluoroisoindolin-2-yl)-3,6-dimethyl-4-oxo-3,4-dihydroquinazolin-8-yl)ethyl)amino)benzoic acid] | < 0.5 µM | > 10 µM | – | –
18 | Cc1cc(C(C)Nc2ccccc2C(=O)O)c2nc(N3Cc4ccccc4C3)n(C(C)C)c(=O)c2c1 (single isomer, unassigned) [Example 27, 2-((1-(2-(isoindolin-2-yl)-3-isopropyl-6-methyl-4-oxo-3,4-dihydroquinazolin-8-yl)ethyl)amino)benzoic acid] | < 0.5 µM | > 10 µM | – | –
19 | CC(Nc1ccccc1C(=O)O)c1cc(Cl)cc2c(=O)n(C)c(N3CC4CC4C3)nc12 (single isomer, unassigned) [Example 105, 2-((1-(2-(3-Azabicyclo[3.1.0]hexan-3-yl)-6-chloro-3-methyl-4-oxo-3,4-dihydroquinazolin-8-yl)ethyl)amino)benzoic acid] | < 0.5 µM | > 10 µM | – | –
20 | Cc1cc(C(C)Nc2ccccc2C(=O)O)c2nc(N3Cc4ccccc4C3)n(C(C)C)c(=O)c2c1 (stereo not drawn) [Example 21, 2-((1-(2-(isoindolin-2-yl)-3-isopropyl-6-methyl-4-oxo-3,4-dihydroquinazolin-8-yl)ethyl)amino)benzoic acid] | < 0.5 µM | > 10 µM | – | –
21 | Cc1cc(C(C)Nc2ccccc2C(=O)O)c2nc(N3C[C@@H]4[C@H](C3)[C@H]4C(=O)N(C)C)n(C)c(=O)c2c1 (stereo partly drawn) [Example 90, 2-((1-(2-((1R,5S,6R)-6-(Dimethylcarbamoyl)-3-azabicyclo[3.1.0]hexan-3-yl)-3,6-dimethyl-4-oxo-3,4-dihydroquinazolin-8-yl)ethyl)amino)benzoic acid] | – | – | 0.5 to 10 µM | > 10 µM
22 | Cc1cc(C(C)Nc2ccccc2C(=O)O)c2nc(N3C[C@@H]4C(C(=O)N(C)C5CCC5)[C@@H]4C3)n(C)c(=O)c2c1 (stereo partly drawn) [Example 82, 2-((1-(2-((1R,5S,6R)-6-(Cyclobutyl(methyl)carbamoyl)-3-azabicyclo[3.1.0]hexan-3-yl)-3,6-dimethyl-4-oxo-3,4-dihydroquinazolin-8-yl)ethyl)amino)benzoic acid] | – | – | < 0.5 µM | > 10 µM
23 | Cc1cc(C(C)Nc2ccccc2C(=O)O)c2nc(N3CCN(C(=O)C45CC(F)(C4)C5)CC3)n(C)c(=O)c2c1 (stereo not drawn) [Example 92, 2-((1-(2-(4-(3-Fluorobicyclo[1.1.1]pentane-1-carbonyl)piperazin-1-yl)-3,6-dimethyl-4-oxo-3,4-dihydroquinazolin-8-yl)ethyl)amino)benzoic acid] | 0.5 to 10 µM | – | – | –
24 | Cc1cc(C(C)Nc2ccccc2C(=O)O)c2nc(N3CCN(C(=O)C4CCCC4)CC3)n(C)c(=O)c2c1 (stereo not drawn) [Example 91, 2-((1-(2-(4-(Cyclopentanecarbonyl)piperazin-1-yl)-3,6-dimethyl-4-oxo-3,4-dihydroquinazolin-8-yl)ethyl)amino)benzoic acid] | < 0.5 µM | – | – | –
25 | COCCN(C)C(=O)[C@H]1[C@@H]2CN(c3nc4c(C(C)Nc5ccccc5C(=O)O)cc(C)cc4c(=O)n3C)C[C@@H]21 (stereo partly drawn) [Example 87, 2-((1-(2-((1R,5S,6R)-6-((2-Methoxyethyl)(methyl)carbamoyl)-3-azabicyclo[3.1.0]hexan-3-yl)-3,6-dimethyl-4-oxo-3,4-dihydroquinazolin-8-yl)ethyl)amino)benzoic acid] | – | – | 0.5 to 10 µM | –
26 | Cc1cc(C(Nc2ccccc2C(=O)O)C(F)(F)F)c2nc(N3CC4CC4C3)n(C)c(=O)c2c1 (stereo not drawn) [Example 47, 2-[[1-[2-(3-azabicyclo[3.1.0]hexan-3-yl)-3,6-dimethyl-4-oxoquinazolin-8-yl]-2,2,2-trifluoroethyl]amino]benzoic acid] | 0.5 to 10 µM | – | – | –
